This passage reports TGI results from PubChem BioAssay (NCI).

Among the test systems are XF 498 CNS; M19-MEL melanoma; SNB-78 CNS; RXF-631 renal; DLD-1 colon; UO-31 renal; HOP-92 NSCLC; HCT-15 colon; LXFL 529 NSCLC; KM20L2 colon; DMS 114 small cell lung; EKVX NSCLC; DMS 273 small cell lung; HOP-18 NSCLC.
Common to all, as to test: growth of human tumour cells (NCI), 48 h

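A five-concentration, 48-hour dose response in 96-well plates underlies each endpoint, interpolated linearly between surrounding concentrations. TGI: total growth inhibition.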

As to `CC1(C)CCC[C@@]2(C)C1CC[C@H]1CC(O)C3(C)CCC12C3` (stereo partly specified), the TGI in the test with XF 498 CNS was determined as 31.7 µM; with M19-MEL melanoma it was 38.2 µM; in the test with SNB-78 CNS, 37 µM; in the test with RXF-631 renal it was 33.5 µM; in the test with DLD-1 colon, 30.9 µM; in the test with UO-31 renal it was 33.3 µM. Besides, the TGI came to 30.5 µM in the test with HOP-92 NSCLC; 32.9 µM in the test with HCT-15 colon; 31.2 µM in the test on LXFL 529 NSCLC; 33 µM with KM20L2 colon; 31.2 µM with DMS 114 small cell lung.
Consider `CCCn1c(SCC)c2cc3cc4ccccc4cc3cc2c1-c1nc(F)nc(F)n1`, for which the TGI with XF 498 CNS, with M19-MEL melanoma, with SNB-78 CNS, in the test on RXF-631 renal, in the test on EKVX NSCLC and in the test with UO-31 renal was over 100 µM in each case. In addition, the TGI with HOP-92 NSCLC, in the test with DMS 273 small cell lung, with HCT-15 colon, with LXFL 529 NSCLC, in the test with KM20L2 colon and with DMS 114 small cell lung was over 100 µM each time.
Take `COc1cc(C=Nc2ccc(C(C)C)cc2)cc(OC)c1OC`: the TGI in the test on XF 498 CNS, in the test with M19-MEL melanoma, in the test on SNB-78 CNS, in the test on EKVX NSCLC, in the test on DLD-1 colon and in the test with UO-31 renal was over 100 µM in each case. Besides, the TGI in the test with HOP-92 NSCLC, with DMS 273 small cell lung, with HCT-15 colon, in the test on LXFL 529 NSCLC, in the test with KM20L2 colon and in the test with DMS 114 small cell lung was over 100 µM in each case. In addition, the TGI in the test on HOP-18 NSCLC was over 100 µM.
